The results in this text go back to patent US11649255B2, “Indazoles as hematopoietic progenitor kinase 1 (HPK1) inhibitors and methods using same” (1st Biotherapeutics, Inc., priority 2020, dated 2023).

recombinant human HPK1, sequence (Q92918 whole entry): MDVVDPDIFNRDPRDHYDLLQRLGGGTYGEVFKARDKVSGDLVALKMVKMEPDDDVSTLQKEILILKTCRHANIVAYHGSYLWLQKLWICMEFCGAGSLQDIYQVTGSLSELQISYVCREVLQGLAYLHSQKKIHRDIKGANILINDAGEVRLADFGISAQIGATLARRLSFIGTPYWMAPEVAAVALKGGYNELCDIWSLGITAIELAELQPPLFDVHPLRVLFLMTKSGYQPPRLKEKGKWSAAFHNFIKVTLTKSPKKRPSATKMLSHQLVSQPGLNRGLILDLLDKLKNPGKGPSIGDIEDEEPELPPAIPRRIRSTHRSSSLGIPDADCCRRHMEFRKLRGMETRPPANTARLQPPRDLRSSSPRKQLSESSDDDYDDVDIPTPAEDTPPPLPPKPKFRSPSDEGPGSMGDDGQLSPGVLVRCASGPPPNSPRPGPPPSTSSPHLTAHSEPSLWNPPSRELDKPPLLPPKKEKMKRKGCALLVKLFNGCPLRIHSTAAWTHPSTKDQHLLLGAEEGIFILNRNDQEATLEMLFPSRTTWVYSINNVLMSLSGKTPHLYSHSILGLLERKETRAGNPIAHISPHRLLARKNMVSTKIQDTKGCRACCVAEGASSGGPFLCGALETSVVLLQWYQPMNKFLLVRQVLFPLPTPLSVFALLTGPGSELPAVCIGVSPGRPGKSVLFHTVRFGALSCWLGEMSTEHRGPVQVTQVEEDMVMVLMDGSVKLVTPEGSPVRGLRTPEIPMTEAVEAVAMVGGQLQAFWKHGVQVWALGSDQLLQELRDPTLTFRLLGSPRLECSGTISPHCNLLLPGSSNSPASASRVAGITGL

This test concerns the target recombinant human HPK1 (Homo sapiens (Human), UniProt Q92918). The experiment in a line: HPK1 kinase assay (ADP-Glo). The format is biochemical. The note with it: 25 μM ATP, MBP substrate. In a few lines:
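Activity was read as ADP formed, detected by ADP-Glo luminescence after the reaction of 5 ng recombinant human HPK1 with MBP and ATP (stocks 0.5 μg/μl and 25 μM) for 40 min at 30 °C. Buffer was Tris pH 7.5 with MgCl2, BSA and DTT, with compound in 0.5% DMSO. IC50 came from inhibition curves.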
Background: ADP-Glo first removes unused ATP, then detects ADP through luciferase.
For orientation: IC50 means the point on the concentration scale where inhibition reaches its midpoint. With `CC(C)c1c(F)c(Cl)c(-c2ccn3nc(NC(=O)[C@@H]4C[C@@H]4F)cc3c2)c2cn[nH]c12` [Example 640, (1S,2S)-N-(5-(5-chloro-6-fluoro-7-isopropyl-1H-indazol-4-yl)pyrazolo[1,5-a]pyridin-2-yl)-2-fluorocyclopropane-1-carboxamide], the IC50 is less than 0.1 µM.
Next, `O=C(Nc1cn2cc(-c3c(Cl)c(F)c(CN4CCC4)c4[nH]ncc34)ccc2n1)[C@@H]1C[C@@H]1F` [Example 380, (1S,2S)-N-(6-(7-(azetidin-1-ylmethyl)-5-chloro-6-fluoro-1H-indazol-4-yl)imidazo[1,2-a]pyridin-2-yl)-2-fluorocyclopropane-1-carboxamide]: less than 0.1 µM; `COCCOc1ccc2[nH]ncc2c1-c1ccc2nc(NC(=O)[C@@H]3C[C@@H]3F)sc2c1` [Example 34, (1S,2S)-2-fluoro-N-(6-(5-(2-methoxyethoxy)-1H-indazol-4-yl)benzo[d]thiazol-2-yl)cyclopropane-1-carboxamide]: more than 1 µM; `CC(C)Oc1c(F)c(Cl)c(-c2ccc3nc(NC(=O)[C@@H]4C[C@@H]4F)cn3c2)c2cn[nH]c12` [Example 404, (1S,2S)-N-(6-(5-chloro-6-fluoro-7-isopropoxy-1H-indazol-4-yl)imidazo[1,2-a]pyridin-2-yl)-2-fluorocyclopropane-1-carboxamide]: less than 0.1 µM.
Next, `NC(=O)c1c(F)c(Cl)c(-c2ccc3nc(NC(=O)[C@@H]4C[C@@H]4F)cn3c2)c2cn[nH]c12` [Example 325, 5-chloro-6-fluoro-4-(2-((1S,2S)-2-fluorocyclopropane-1-carboxamido)imidazo[1,2-a]pyridin-6-yl)-1H-indazole-7-carboxamide]: more than 1 µM.
Next, `CN(Nc1c(F)c(Cl)c(-c2ccn3nc(NC(=O)[C@@H]4C[C@@H]4F)cc3c2)c2cn[nH]c12)C(=O)OC(C)(C)C` [Example 542, tert-butyl 2-(5-chloro-6-fluoro-4-(2-((1S,2S)-2-fluorocyclopropane-1-carboxamido)pyrazolo[1,5-a]pyridin-5-yl)-1H-indazol-7-yl)-1-methylhydrazine-1-carboxylate]: less than 0.1 µM; `O=C(Nc1nc2ccc(-c3c(Cl)c(F)c(NCC4CNC4)c4[nH]ncc34)cc2s1)[C@@H]1C[C@@H]1F` [Example 95, (1S,2S)-N-(6-(7-((azetidin-3-ylmethyl)amino)-5-chloro-6-fluoro-1H-indazol-4-yl)benzo[d]thiazol-2-yl)-2-fluorocyclopropanecarboxamide]: less than 0.1 µM.
`COC(=O)c1c(F)c(C)c(-c2ccc3nc(NC(=O)[C@@H]4C[C@@H]4F)sc3c2)c2cn[nH]c12` [Example 116, methyl 6-fluoro-4-(2-((1S,2S)-2-fluorocyclopropane-1-carboxamido)benzo[d]thiazol-6-yl)-5-methyl-1H-indazole-7-carboxylate]: the IC50 was less than 0.1 µM.
`O=C(Nc1cc2cc(-c3c(Cl)c(F)c(N4CCS(=O)(=O)CC4)c4[nH]ncc34)ccn2n1)[C@@H]1C[C@@H]1F` [Example 628, (1S,2S)-N-(5-(5-chloro-7-(1,1-dioxidothiomorpholino)-6-fluoro-1H-indazol-4-yl)pyrazolo[1,5-a]pyridin-2-yl)-2-fluorocyclopropane-1-carboxamide]: the IC50 is less than 0.1 µM.
Next, `O=C(Nc1cc2cc(-c3c(Cl)c(F)c(N4CCOCC4)c4[nH]ncc34)ccn2n1)[C@@H]1C[C@@H]1F` [Example 498, (1S,2S)-N-(5-(5-chloro-6-fluoro-7-morpholino-1H-indazol-4-yl)pyrazolo[1,5-a]pyridin-2-yl)-2-fluorocyclopropane-1-carboxamide]: less than 0.1 µM.
With `O=C(Nc1nc2ccc(-c3c(F)ccc4[nH]ncc34)cc2s1)C1CC1` [Example 15, N-(6-(5-fluoro-1H-indazol-4-yl)benzo[d]thiazol-2-yl)cyclopropanecarboxamide], the half-inhibitory concentration (IC50) was 0.101 to 0.5 µM.
Next, `CSc1ccc(-c2ccn3nc(NC(=O)[C@@H]4C[C@@H]4F)cc3c2)c2cn[nH]c12` [Example 593, (1S,2S)-2-fluoro-N-(5-(7-(methylthio)-1H-indazol-4-yl)pyrazolo[1,5-a]pyridin-2-yl)cyclopropane-1-carboxamide]: less than 0.1 µM; `C#Cc1c(F)cc2[nH]ncc2c1-c1ccc2nc(NC(=O)[C@@H]3C[C@@H]3F)sc2c1` [Example 47, (1S,2S)-N-(6-(5-ethynyl-6-fluoro-1H-indazol-4-yl)benzo[d]thiazol-2-yl)-2-fluorocyclopropane-1-carboxamide]: less than 0.1 µM; `O=C(Nc1cn2cc(-c3c(Cl)c(F)c(-c4cnc[nH]4)c4[nH]ncc34)ccc2n1)[C@@H]1C[C@@H]1F` [Example 431, (1S,2S)-N-(6-(5-chloro-6-fluoro-7-(1H-imidazol-5-yl)-1H-indazol-4-yl)imidazo[1,2-a]pyridin-2-yl)-2-fluorocyclopropane-1-carboxamide]: 0.101 to 0.5 µM.
For the compound `O=C(Nc1cc2cc(-c3c(Cl)c(F)c(Cl)c4[nH]ncc34)ccn2n1)[C@@H]1C[C@@H]1F` [Example 476, (1S,2S)-N-(5-(5,7-dichloro-6-fluoro-1H-indazol-4-yl)pyrazolo[1,5-a]pyridin-2-yl)-2-fluorocyclopropane-1-carboxamide], the IC50 was less than 0.1 µM.
With `CC(C#N)Nc1c(F)c(Cl)c(-c2ccc3nc(NC(=O)[C@@H]4C[C@@H]4F)cn3c2)c2cn[nH]c12` (stereo partly drawn) [Example 371, (1S,2S)-N-(6-(5-chloro-7-((1-cyanoethyl)amino)-6-fluoro-1H-indazol-4-yl)imidazo[1,2-a]pyridin-2-yl)-2-fluorocyclopropane-1-carboxamide] the figure was less than 0.1 µM.
For `C[C@H]1[C@H](C(=O)Nc2cc3cc(-c4c(Cl)c(F)c(N(C)C)c5[nH]ncc45)ccn3n2)[C@H]1c1cnn(C)c1` [Example 646, (1S,2R,3S)-N-(5-(5-chloro-7-(dimethylamino)-6-fluoro-1H-indazol-4-yl)pyrazolo[1,5-a]pyridin-2-yl)-2-methyl-3-(1-methyl-1H-pyrazol-4-yl)cyclopropane-1-carboxamide], the IC50 is less than 0.1 µM.
Next, `O=C(Nc1cn2cc(-c3cc(F)c(OC(F)(F)F)c4[nH]ncc34)ccc2n1)[C@@H]1C[C@@H]1F` [Example 344, (1S,2S)-2-fluoro-N-(6-(6-fluoro-7-(trifluoromethoxy)-1H-indazol-4-yl)imidazo[1,2-a]pyridin-2-yl)cyclopropane-1-carboxamide]: 0.101 to 0.5 µM; `CCc1c(F)c(N(C)CC)c2[nH]ncc2c1-c1ccc2nc(NC(=O)[C@@H]3C[C@@H]3F)sc2n1` [Example 200, (1S,2S)-N-(5-(5-ethyl-7-(ethyl(methyl)amino)-6-fluoro-1H-indazol-4-yl)thiazolo[5,4-b]pyridin-2-yl)-2-fluorocyclopropane-1-carboxamide]: less than 0.1 µM; `O=C(Nc1nc2ccc(-c3c(Cl)c(F)c(N4CCOCC4)c4[nH]ncc34)cc2s1)[C@@H]1C[C@@H]1F` [Example 74, (1S,2S)-N-(6-(5-chloro-6-fluoro-7-morpholino-1H-indazol-4-yl)benzo[d]thiazol-2-yl)-2-fluorocyclopropane-1-carboxamide]: 0.101 to 0.5 µM.
For `CNc1c(F)c(Cl)c(-c2ccc3nc(NC(=O)[C@@H]4C[C@@H]4F)cn3c2)c2cn[nH]c12` [Example 265, (1S,2S)-N-(6-(5-chloro-6-fluoro-7-(methylamino)-1H-indazol-4-yl)imidazo[1,2-a]pyridin-2-yl)-2-fluorocyclopropane-1-carboxamide], the IC50 was less than 0.1 µM.
Next, `O=C(Nc1cc2cc(-c3c(Cl)c(F)c(NC4CCC(O)C4)c4[nH]ncc34)ccn2n1)[C@@H]1C[C@@H]1F` (stereo partly drawn) [Example 559, (1S,2S)-N-(5-(5-chloro-6-fluoro-7-((3-hydroxycyclopentyl)amino)-1H-indazol-4-yl)pyrazolo[1,5-a]pyridin-2-yl)-2-fluorocyclopropane-1-carboxamide]: less than 0.1 µM; `CS(=O)(=O)c1c(F)c(Cl)c(-c2ccc3nc(NC(=O)[C@@H]4C[C@@H]4F)cn3c2)c2cn[nH]c12` [Example 267, (1S,2S)-N-(6-(5-chloro-6-fluoro-7-(methylsulfonyl)-1H-indazol-4-yl)imidazo[1,2-a]pyridin-2-yl)-2-fluorocyclopropane-1-carboxamide]: 0.101 to 0.5 µM.
Next, `O=C(Nc1cn2cc(-c3c(Cl)c(F)c(CN4CCCCC4)c4[nH]ncc34)ccc2n1)[C@@H]1C[C@@H]1F` [Example 382, (1S,2S)-N-(6-(5-chloro-6-fluoro-7-(piperidin-1-ylmethyl)-1H-indazol-4-yl)imidazo[1,2-a]pyridin-2-yl)-2-fluorocyclopropane-1-carboxamide]: 0.101 to 0.5 µM; `Cc1c(F)c([S+](C)[O-])c2[nH]ncc2c1-c1ccc2nc(NC(=O)[C@@H]3C[C@@H]3F)sc2n1` (stereo partly drawn) [Example 177, (1S,2S)-2-fluoro-N-(5-(6-fluoro-5-methyl-7-(methylsulfinyl)-1H-indazol-4-yl)thiazolo[5,4-b]pyridin-2-yl)cyclopropane-1-carboxamide]: 0.101 to 0.5 µM.
With `CC(NC(=O)C(F)F)c1c(F)c(Cl)c(-c2ccn3nc(NC(=O)[C@@H]4C[C@@H]4F)cc3c2)c2cn[nH]c12` (stereo partly drawn) [Example 665, (1S,2S)-N-(5-(5-chloro-7-(1-(2,2-difluoroacetamido)ethyl)-6-fluoro-1H-indazol-4-yl)pyrazolo[1,5-a]pyridin-2-yl)-2-fluorocyclopropane-1-carboxamide] the figure was less than 0.1 µM; with `Cc1ccc2[nH]ncc2c1-c1ccc2nc(NC(=O)OC(C)(C)C)sc2c1` [Example 3, tert-butyl (6-(5-methyl-1H-indazol-4-yl)benzo[d]thiazol-2-yl)carbamate], more than 1 µM; with `CN(c1c(F)c(Cl)c(-c2ccn3nc(NC(=O)[C@@H]4C[C@@H]4F)cc3c2)c2cn[nH]c12)C1CCC(N)CC1` (some centres unmarked) [Example 514], less than 0.1 µM.
As to `N#CCNc1c(F)c(Cl)c(-c2ccc3nc(NC(=O)[C@@H]4C[C@@H]4F)cn3c2)c2cn[nH]c12` [Example 366, (1S,2S)-N-(6-(5-chloro-7-((cyanomethyl)amino)-6-fluoro-1H-indazol-4-yl)imidazo[1,2-a]pyridin-2-yl)-2-fluorocyclopropane-1-carboxamide], the 50% inhibitory concentration (IC50) was less than 0.1 µM.
